Measurements published in patent US10131652B2, “Pyrimidinyloxy benzene derivatives as herbicides” (E. I. DU PONT DE NEMOURS AND COMPANY, priority 2014, dated 2018).

What was measured:
Assay type in all cases: in vivo
rice (Oryza sativa) = test: Test C flooded paddy test plant response; settings: Flood, 250 g ai/ha; scale of 0 to 100 where 0 is no effect and 100 is complete control; 13 to 15 days
In short: (§1)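 Scored visually on a 0–100 scale (100 = complete control) against untreated plants 13 to 15 days after treatment in the greenhouse. Compounds went into paddy water of pots flooded to 3 cm, holding 2-leaf-stage plants.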

[1] = test system: ducksalad (Heteranthera limosa); test: Test C flooded paddy test plant response; settings: Flood, 250 g ai/ha; scale of 0 to 100 where 0 is no effect and 100 is complete control; 13 to 15 days
In short: as §1

[2] = test system: small-flower umbrella sedge (Cyperus difformis); test: Test C flooded paddy test plant response; settings: Flood, 250 g ai/ha; scale of 0 to 100 where 0 is no effect and 100 is complete control; 13 to 15 days
In short: as §1

[3] = test system: barnyardgrass (Echinochloa crus-galli); test: Test C flooded paddy test plant response; settings: Flood, 250 g ai/ha; scale of 0 to 100 where 0 is no effect and 100 is complete control; 13 to 15 days
In short: as §1

[4] = test system: blackgrass (Alopecurus myosuroides); test: Test B postemergence plant response
In short: (§2)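 Visual injury ratings, 0 = no effect to 100 = complete control, versus untreated controls approximately 10 days after postemergence spraying in greenhouse. Plants were at one- to two-leaf stage, 2 to 10 cm tall, in loam soil/sand blend; a dash denotes no result.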

[5] = test system: galium (catchweed bedstraw, Galium aparine); test: Test B postemergence plant response
In short: as §2

corn (Zea mays) = test: Test B pre-/postemergence plant response
In short: (§3)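 Visual injury scores on a 0–100 scale (100 = complete control) relative to untreated plants, taken about 10 days post-treatment in greenhouse. Treatments were a directed preemergence soil spray and a postemergence spray at one- to two-leaf stage, using surfactant-containing solvent formulation.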

kochia (Kochia scoparia) = test: Test B pre-/postemergence plant response
In short: as §3

[6] = test system: wheat (Triticum aestivum); test: Test B pre-/postemergence plant response
In short: as §3

[7] = test system: pigweed (Amaranthus retroflexus); test: Test B pre-/postemergence plant response
In short: as §3

[8] = test system: giant foxtail (Setaria faberii); test: Test B pre-/postemergence plant response
In short: as §3

[9] = test system: ragweed (common ragweed, Ambrosia elatior); test: Test B pre-/postemergence plant response
In short: as §3

[10] = test system: barnyardgrass (Echinochloa crus-galli); test: Test B pre-/postemergence plant response
In short: as §3

[11] = test system: Italian ryegrass (Lolium multiflorum); test: Test B pre-/postemergence plant response
In short: as §3

[12] = 125 g ai/ha, postemergence, 0 to 100 scale, 0 no effect, 100 complete control
[13] = Postemergence, 500 g ai/ha, 0 to 100 scale (0 no effect, 100 complete control)
[14] = Preemergence, 125 g ai/ha, 0 to 100 scale (0 no effect, 100 complete control)
[15] = Preemergence, 500 g ai/ha, 0 to 100 scale where 0 is no effect and 100 is complete control

SMILES: Clc1cnc(Oc2ccccc2-c2ccc(Br)s2)nc1 [Compound 181]
- Rice plant response rating (rice (Oryza sativa)): 0
- Ducksalad plant response rating [1]: 0
- Sedge, Umbrella plant response rating [2]: 0
- Barnyardgrass plant response rating [3]: 0
- Plant response rating, Blackgrass [4, 12]: 0
- Plant response rating, Blackgrass [4, 13]: 10
- Plant response rating, Galium [5, 12]: 10
- Plant response rating, Galium [5, 13]: 50
- Plant response rating, Corn (corn (Zea mays); [12]): 10
- Plant response rating, Corn (corn (Zea mays); [13]): 10
- Plant response rating, Kochia (kochia (Kochia scoparia); [12]): 30
- Plant response rating, Kochia (kochia (Kochia scoparia); [13]): 50
- Kochia plant response rating (kochia (Kochia scoparia); [14]): 0
- Plant response rating, Kochia (kochia (Kochia scoparia); [15]): 0
- Plant response rating, Wheat [6, 12]: 0
- Plant response rating, Wheat [6, 13]: 0
- Plant response rating, Pigweed [7, 12]: 50
- Plant response rating, Pigweed [7, 13]: 90
- Pigweed plant response rating [7, 14]: 10
- Plant response rating, Pigweed [7, 15]: 80
- Plant response rating, Foxtail, Giant [8, 12]: 0
- Plant response rating, Foxtail, Giant [8, 13]: 20
- Foxtail, Giant plant response rating [8, 14]: 0
- Plant response rating, Foxtail, Giant [8, 15]: 40
- Plant response rating, Ragweed [9, 12]: 10
- Plant response rating, Ragweed [9, 13]: 10
- Ragweed plant response rating [9, 14]: 0
- Plant response rating, Ragweed [9, 15]: 0
- Plant response rating, Barnyardgrass [10, 12]: 10
- Plant response rating, Barnyardgrass [10, 13]: 20
- Barnyardgrass plant response rating [10, 14]: 0
- Plant response rating, Barnyardgrass [10, 15]: 10
- Plant response rating, Ryegrass, Italian [11, 12]: 0
- Plant response rating, Ryegrass, Italian [11, 13]: 0
- Ryegrass, Italian plant response rating [11, 14]: 0
- Plant response rating, Ryegrass, Italian [11, 15]: 0

SMILES: Clc1cnc(Oc2ccccc2-c2cccs2)nc1 [Compound 182]
- Rice plant response rating (rice (Oryza sativa)): 0
- Ducksalad plant response rating [1]: 0
- Sedge, Umbrella plant response rating [2]: 0
- Barnyardgrass plant response rating [3]: 0
- Plant response rating, Blackgrass [4, 12]: 0
- Plant response rating, Blackgrass [4, 13]: 10
- Plant response rating, Galium [5, 12]: 30
- Plant response rating, Galium [5, 13]: 50
- Plant response rating, Corn (corn (Zea mays); [12]): 10
- Plant response rating, Corn (corn (Zea mays); [13]): 20
- Plant response rating, Kochia (kochia (Kochia scoparia); [12]): 30
- Plant response rating, Kochia (kochia (Kochia scoparia); [13]): 80
- Kochia plant response rating (kochia (Kochia scoparia); [14]): 0
- Plant response rating, Kochia (kochia (Kochia scoparia); [15]): 30
- Plant response rating, Wheat [6, 12]: 0
- Plant response rating, Wheat [6, 13]: 0
- Plant response rating, Pigweed [7, 12]: 40
- Plant response rating, Pigweed [7, 13]: 80
- Pigweed plant response rating [7, 14]: 0
- Plant response rating, Pigweed [7, 15]: 40
- Plant response rating, Foxtail, Giant [8, 12]: 0
- Plant response rating, Foxtail, Giant [8, 13]: 50
- Foxtail, Giant plant response rating [8, 14]: 0
- Plant response rating, Foxtail, Giant [8, 15]: 40
- Plant response rating, Ragweed [9, 12]: 0
- Plant response rating, Ragweed [9, 13]: 10
- Ragweed plant response rating [9, 14]: 0
- Plant response rating, Ragweed [9, 15]: 10
- Plant response rating, Barnyardgrass [10, 12]: 0
- Plant response rating, Barnyardgrass [10, 13]: 10
- Barnyardgrass plant response rating [10, 14]: 0
- Plant response rating, Barnyardgrass [10, 15]: 20
- Plant response rating, Ryegrass, Italian [11, 12]: 0
- Plant response rating, Ryegrass, Italian [11, 13]: 0
- Ryegrass, Italian plant response rating [11, 14]: 0
- Plant response rating, Ryegrass, Italian [11, 15]: 10
